Consider three compounds from PMC10985536, “Aqueous solution and solid-state behaviour of L-homophenylalanine: experiment, modelling, and DFT calculations” (RSC Advances, 2024).

Series [1] in a line: Aqueous solubility of L-Hpa as a function of temperature and pH (isothermal equilibration, HPLC). In kind it is physicochemical. To be noted: for Solubility in water: pure water (at pI). The protocol:
HPLC analysis was performed via a Dionex UltiMate3000 system manufactured by Thermo Scientific, Waltham. Two different HPLC methods were employed to quantify the L-Hpa concentration. The first method relies on a 150 mm long Crownpak (CR+) column (Daicel Corporation, Osaka) with a diameter of 4 mm and a particle size of 5 μm. Measurement took place at 298 K with an eluent flow rate of 0.8 mL min^−1 and an injection volume of 1 μL. Detection was achieved by light absorbance at 200 nm. Aqueous solution of perchloric acid with a pH of 2 was used as eluent. This method was developed in our lab but a similar one was employed in the literature.[14] The second method is based on another work,[31] where a Chirobiotic T column (Astec) with a length of 250 mm, a diameter of 4.6 mm and a particle size of 5 μm was utilized. 0.5 mL per L acetic acid was added to 0.01 mol per L ammonium acetate solution, which was then mixed with methanol in the volumetric ratio of 30/70 to produce the eluent. Measurements were done with an eluent flow rate of 0.5 mL min^−1 by adding 10 μL of sample and detection of light absorbance at 210 nm. Calibration was obtained by dissolving known amounts of L-Hpa in eluent and correlating the measured light absorbance to the concentration by linear regression.
pH measurements were performed with an MP225 pH meter with an InLab Micro Pro probe manufactured by Mettler Toledo, USA. The system is calibrated in regular intervals and each day the accuracy was checked by measuring pH standards at room temperature. At 298 K the pH values were stable and used for the evaluation, while for 328 K either the stable value or the value after 60 s was accepted to reduce the influence of cooling (and potential nucleation).
Equilibrium experiments at isothermal conditions were performed in tempered double jacketed glass reactors at different temperatures. First, L-Hpa, was mixed with water and dissolved completely by heating the suspension. The samples of about 10 mL were then brought to the target temperature at which they were allowed to equilibrate for at least 48 h while being stirred continuously. […] For selected samples at both saturation temperatures (298 K and 328 K), a solid–liquid separation was conducted by vacuum filtration and the obtained solids were analysed by HPLC and PXRD.
Most experiments for determination of pH-dependent solubilities were performed in the Crystalline multi reactor system, manufactured by Technobis Crystallization Systems, The Netherlands. […] Shortly before complete dissolution was detected visually, the buffer addition was stopped. […] On the next day, stirring was stopped, liquid samples were withdrawn and the pH was recorded. […]

For series [2] the following is noted: heating 2 K min^-1, helium.
Description: TG was performed with a Sensys Evo twin type instrument manufactured by Setaram Instrumentation, France. Grinded samples of about 4 to 7 mg L-Hpa were weighed into open 100 μL aluminium crucibles and analysed with a linear temperature program under a helium (5.0) atmosphere. For the measurement, the following heating program was employed: starting at 298 K heating to 673 K with 2 K min^−1 and subsequent cooling to 298 K with 5 K min^−1. […] Temperature calibration of the instrument is performed regularly using the melting temperatures of highly pure indium, tin, zinc and lead at different heating rates.
Details of series [3]: method as in PMID 17874082. As to conditions: cited from earlier work.

Several values for one entry are separate records, joined by “and”; a condition that tells them apart may be missing. Equal entries are not always repeated. Where two headings read alike, the source gives them in different places.

Consider `N[C@@H](CCc1ccccc1)C(=O)O` [L-Hpa, L-homophenylalanine], for which the Solubility in water was 0.0075 mol% in series [1] (298 K); 0.0153 mol% and 0.015 mol% in series [1] (328 K). This compound also came in with a Highest solubility observed in series [1] (pH 1.07, 328 K, perchloric acid buffer) of 0.278 mol%. Besides, the “Solubility increase at sufficiently low or high pH” value in series [1] (pH 1.5 or 10.5) is listed as “increase almost twentyfold”. The TG mass loss result is given as “ca. 10 wt%” in series [2] (at about 520 K) and 95 wt% in series [2] (up to about 560 K).

Take `N[C@@H](Cc1ccccc1)C(=O)O` [Phenylalanine]: in series [3], the “pKa(2) (NH3), experimental” value is 9.17 ± 0.06.

On to `N[C@@H](Cc1c[nH]cn1)C(=O)O` [histidine], for which, in series [3], the “pKa(1) (COOH), experimental” value is 1.64 ± 0.45 and the “pKa(2) (NH3), experimental” value was 9.14 ± 0.08.
